# Patent publication EP2970215B1, “PYRROLIDINE DERIVATIVES, PHARMACEUTICAL COMPOSITIONS CONTAINING THEM, AND THEIR USE IN THERAPY” (AbbVie Deutschland GmbH & Co. KG, priority 2013, dated 2014)
# Target: T1, human GlyT1c transporter (Homo sapiens, UniProt P48067)
# T1 construct: expressed in transfected cells; host or cells: CHO cells (recombinant; line hGlyT1c_5_CHO is named for the uptake assay)
# T1 sequence (P48067 1-706): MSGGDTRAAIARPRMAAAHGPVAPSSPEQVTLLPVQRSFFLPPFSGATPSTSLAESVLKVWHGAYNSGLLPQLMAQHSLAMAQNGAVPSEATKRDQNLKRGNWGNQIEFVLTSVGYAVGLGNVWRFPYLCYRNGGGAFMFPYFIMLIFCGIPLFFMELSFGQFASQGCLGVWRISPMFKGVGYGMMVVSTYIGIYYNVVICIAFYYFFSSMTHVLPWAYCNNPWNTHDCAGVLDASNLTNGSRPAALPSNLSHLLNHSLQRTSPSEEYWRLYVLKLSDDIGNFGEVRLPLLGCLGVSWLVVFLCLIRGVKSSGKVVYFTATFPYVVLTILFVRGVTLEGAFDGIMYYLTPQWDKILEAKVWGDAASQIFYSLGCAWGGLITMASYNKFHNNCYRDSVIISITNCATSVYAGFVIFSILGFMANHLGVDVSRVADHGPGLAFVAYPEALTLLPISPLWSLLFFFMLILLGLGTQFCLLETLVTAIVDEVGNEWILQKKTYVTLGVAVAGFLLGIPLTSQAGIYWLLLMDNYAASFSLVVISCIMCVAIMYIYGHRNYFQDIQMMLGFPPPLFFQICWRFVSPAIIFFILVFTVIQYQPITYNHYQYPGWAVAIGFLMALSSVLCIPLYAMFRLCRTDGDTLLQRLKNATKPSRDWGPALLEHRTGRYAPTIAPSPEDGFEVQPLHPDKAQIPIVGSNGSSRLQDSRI
# Experiment: Radioligand binding assay using recombinant CHO cell membranes expressing human GlyT1
# Conditions: radioligand binding to human GlyT1c transporter-expressing membranes
# Source text: 2. Radioligand binding assays using recombinant CHO cell membranes expressing human GlyT1: […]
row,Ki [µM],SMILES
1,≤ 1,"Cn1cnc(S(=O)(=O)N2C[C@@H](C(=O)NCc3ccccc3)[C@H](c3ccc(F)cc3)C2)c1 (relative stereo) [Example 289, Trans-N-benzyl-4-(4-fluorophenyl)-1-[(1-methyl-1H-imidazol-4-yl)sulfonyl]pyrrolidine-3-carboxamide]"
2,≤ 10,"Cn1cnc(S(=O)(=O)N2C[C@@H](CNc3ccccc3)[C@H](c3ccc(F)cc3)C2)c1 (relative stereo) [Example 290, N-({trans-4-(4-fluorophenyl)-1-[(1-methyl-1H-imidazol-4-yl)sulfonyl]pyrrolidin-3-yl}methyl)aniline]"
3,≤ 0.1,"Cn1cnc(S(=O)(=O)N2C[C@@H](CNc3ccc(C(F)(F)F)cc3)[C@H](c3ccc(F)cc3)C2)c1 (relative stereo) [Example 291, N-({trans-4-(4-fluorophenyl)-1-[(1-methyl-1H-imidazol-4-yl)sulfonyl]pyrrolidin-3-yl}methyl)-4-(trifluoromethyl)aniline]"
4,≤ 1,"Cn1cnc(S(=O)(=O)N2C[C@@H](CNc3cc(Cl)cc(Cl)c3)[C@H](c3ccc(F)cc3)C2)c1 (relative stereo) [Example 292, 3,5-dichloro-N-({trans-4-(4-fluorophenyl)-1-[(1-methyl-1H-imidazol-4-yl)sulfonyl]pyrrolidin-3-yl}methyl)aniline]"
5,≤ 0.1,"Cn1cnc(S(=O)(=O)N2C[C@@H](COc3cccc(C(F)(F)F)c3)[C@H](c3ccc(F)cc3)C2)c1 (relative stereo) [Example 293, 4-{[trans-3-(4-fluorophenyl)-4-{[3-(trifluoromethyl)phenoxy]methyl}pyrrolidin-1-yl]sulfonyl}-1-methyl-1H-imidazole]"
6,≤ 0.1,"Cn1cnc(S(=O)(=O)N2C[C@@H](COc3ccc(F)c(C(F)(F)F)c3)[C@H](c3ccc(F)cc3)C2)c1 (relative stereo) [Example 295, 4-{[trans-3-(4-fluorophenyl)-4-{[4-fluoro-3-(trifluoromethyl)phenoxy]methyl}pyrrolidin-1-yl]sulfonyl}-1-methyl-1H-imidazole]"

# More lines, now with the values behind:
row,SMILES,Ki [µM]
1,"Cn1cnc(S(=O)(=O)N2C[C@@H](C(=O)c3ccccc3)[C@H](c3ccc(F)cc3)C2)c1 (relative stereo) [Example 271, {trans-4-(4-fluorophenyl)-1-[(1-methyl-1H-imidazol-4-yl)sulfonyl]pyrrolidin-3-yl}(phenyl)methanone]",≤ 1
2,"Cn1cnc(S(=O)(=O)N2C[C@@H](C(=O)Nc3cccc(C(F)(F)F)c3Cl)[C@H](c3ccc(F)cc3)C2)c1 (relative stereo) [Example 272, Trans-N-[2-chloro-3-(trifluoromethyl)phenyl] -4-(4-fluorophenyl)-1 - [(1-methyl-1H-imidazol-4-yl)sulfonyl]pyrrolidine-3-carboxamide]",≤ 1
3,"Cn1cnc(S(=O)(=O)N2C[C@@H](C(=O)Nc3ccc(F)c(C(F)(F)F)c3)[C@H](c3ccc(F)cc3)C2)c1 (relative stereo) [Example 274, trans-4-(4-fluorophenyl)-N-[4-fluoro-3-(trifluoromethyl)phenyl]-1-[(1-methyl-1H-imidazol-4-yl)sulfonyl]pyrrolidine-3-carboxamide]",≤ 0.1
4,"Cn1cnc(S(=O)(=O)N2C[C@@H](C(=O)Nc3ccc(F)c(Cl)c3)[C@H](c3ccc(F)cc3)C2)c1 (relative stereo) [Example 275, trans-N-(3-chloro-4-fluorophenyl)-4-(4-fluorophenyl)-1-[(1-methyl-1H-imidazol-4-yl)sulfonyl]pyrrolidine-3-carboxamide]",≤ 1
5,"Cn1cnc(S(=O)(=O)N2C[C@@H](C(=O)Nc3ccc(C(F)(F)F)c(Cl)c3)[C@H](c3ccc(F)cc3)C2)c1 (relative stereo) [Example 276, trans-N-[3-chloro-4-(trifluoromethyl)phenyl]-4-(4-fluorophenyl)-1-[(1-methyl-1H-imidazol-4-yl)sulfonyl]pyrrolidine-3-carboxamide]",≤ 1
6,"Cn1cnc(S(=O)(=O)N2C[C@@H](Nc3cccc(Cl)c3)[C@H](c3ccccc3Cl)C2)c1 (relative stereo) [Example 278, trans-4-(2-chlorophenyl)-N-(3-chlorophenyl)-1-[(1-methyl-1H-imidazol-4-yl)sulfonyl]pyrrolidin-3-amine]",≤ 0.1
7,"Cn1cnc(S(=O)(=O)N2C[C@@H](NCc3ccc(Cl)cc3Cl)[C@H](c3ccc(F)cc3)C2)c1 (relative stereo) [Example 279, trans-N-(2,4-dichlorobenzyl)-4-(4-fluorophenyl)-1-[(1-methyl-1H-imidazol-4-yl)sulfonyl]pyrrolidin-3-amine]",≤ 10
8,"Cn1cnc(S(=O)(=O)N2C[C@@H](NCc3ccc(Cl)cc3Cl)[C@H](c3ccccc3)C2)c1 (relative stereo) [Example 280, trans-N-(2,4-dichlorobenzyl)-1-[(1-methyl-1H-imidazol-4-yl)sulfonyl]-4-phenylpyrrolidin-3-amine]",≤ 0.01
9,"Cn1cnc(S(=O)(=O)N2C[C@@H](NCc3ccc(C(F)(F)F)cc3Cl)[C@H](c3ccccc3)C2)c1 (relative stereo) [Example 281, trans-N-[2-chloro-4-(trifluoromethyl)benzyl]-1-[(1-methyl-1H-imidazol-4-yl)sulfonyl]-4-phenylpyrrolidin-3-amine]",≤ 0.01
10,"Cn1cnc(S(=O)(=O)N2C[C@@H](NCc3ccc(Cl)cc3Cl)[C@H](c3ccccc3F)C2)c1 (relative stereo) [Example 282, trans-N-(2,4-dichlorobenzyl)-4-(2-fluorophenyl)-1-[(1-methyl-1H-imidazol-4-yl)sulfonyl]pyrrolidin-3-amine]",≤ 0.1
11,"Cn1cnc(S(=O)(=O)N2C[C@@H](NCc3ccc(C(F)(F)F)cc3Cl)[C@H](c3ccccc3F)C2)c1 (relative stereo) [Example 283, trans-N-[2-chloro-4-(trifluoromethyl)benzyl] -4-(2-fluorophenyl)-1-[(1-methyl-1H-imidazol-4-yl)sulfonyl]pyrrolidin-3-amine]",≤ 0.1
12,"Cn1cnc(S(=O)(=O)N2C[C@@H](NCc3ccc(Cl)cc3Cl)[C@H](c3ccccc3Cl)C2)c1 (relative stereo) [Example 284, trans-4-(2-chlorophenyl)-N-(2,4-dichlorobenzyl)-1-[(1-methyl-1H-imidazol-4-yl)sulfonyl]pyrrolidin-3-amine]",≤ 0.1
13,"Cn1cnc(S(=O)(=O)N2C[C@@H](NCc3ccc(C(F)(F)F)cc3Cl)[C@H](c3ccccc3Cl)C2)c1 (relative stereo) [Example 285, trans-4-(2-chlorophenyl)-N-[2-chloro-4-(trifluoromethyl)benzyl]-1-[(1-methyl-1H-imidazol-4-yl)sulfonyl]pyrrolidin-3-amine]",≤ 0.1
14,"Cn1cnc(S(=O)(=O)N2C[C@@H](NCc3ccc(Cl)cc3Cl)[C@H](c3cccnc3)C2)c1 (relative stereo) [Example 286, trans-N-(2,4-dichlorobenzyl)-1-[(1-methyl-1H-imidazol-4-yl)sulfonyl]-4-(pyridin-3-yl)pyrrolidin-3-amine]",≤ 10
15,"Cn1cnc(S(=O)(=O)N2C[C@@H](COc3ccc(C(F)(F)F)cc3Cl)[C@H](c3ccc(F)cc3)C2)c1 (relative stereo) [Example 294, 4-{[trans-3-{[2-chloro-4-(trifluoromethyl)phenoxy]methyl}-4-(4-fluorophenyl)pyrrolidin-1-yl]sulfonyl}-1-methyl-1H-imidazole]",≤ 0.01
